Series [1] relates to TREM2. Put plainly: Immunomodulation assay: TREM2 (M2 marker) expression in LPS-treated N9 microglial cells (Western blot). It counts as cell-based, mouse. Conditions: 100 ng/mL LPS, 6 h pretreatment + 24 h. From the text: (§1) Microglia, essential regulators of neuroinflammatory processes, can be polarized to two distinct activation states: M1 and M2. M1 microglia have proinflammatory, neurotoxic properties and are modeled in vitro through lipopolysaccharides (LPS) activation. Alternatively, M2 microglia are involved in anti-inflammatory processes, contributing to trophic support of neurons and neuroprotective functions. A marked microglial activation with high expression levels of proinflammatory genes is found in MS lesions.[23] Conversely, the neuroprotective effects of the MS drug glatiramer are mediated by activated M2 microglia.[24] To this end, we evaluated whether 1 and 2 modulate microglial shift from an M1 neurotoxic phenotype to an M2 neuroprotective one. […] After pretreatment for 6 h and administration for a further 24 h, the microglial phenotype was evaluated through Western blot analysis of the M1-iNOS (inducible Nitric Oxide Synthase) and M2-TREM2 (Triggering Receptor Expressed on Myeloid cells 2) markers (Figure 6). We also assessed nitrite production, due to iNOS induction, in the incubation media. […]
(§2) Nitrite accumulation in cell media was assayed by the Griess reaction. […] Absorbance was read at 540 nm using a plate reader after 15 min of incubation at room […]
(§3) After 24 hours, the viability was evaluated through the MTT assay. […]

Series [2] relates to iNOS. Put plainly: Immunomodulation assay: iNOS (M1 marker) expression in LPS-treated N9 microglial cells (Western blot). The format is cell-based, mouse. Conditions: 100 ng/mL LPS, 6 h pretreatment + 24 h, even at 0.5 μM.
Description: as §1, §2, §3

Series [3] has as its system N9 microglial cells. Put plainly: Nitrites measurement (Griess reaction) in medium of LPS-treated N9 microglial cells. The format is cell-based, mouse. The settings on record: 100 ng/mL LPS, 6 h pretreatment + 24 h.
Description: as §1
medium/well and treated with increasing concentrations of the compounds (0.5, 1, 5 and 10 μM), in serum-free DMEM for 24 hours. After 24 hours, the viability was evaluated through the MTT assay. […]

Series [4] relates to human liver carcinoma immortalized cell line (HepG2). Conditions: for cell survival/death in HepG2 cells, % mean ± SE of controls (MTT): 24 h treatment; for hepatotoxicity in HepG2 (in words): even at the higher tested concentrations.
Series [5] deals with Oli-Neu cells. Put plainly: Oli-Neu cell proliferation and differentiation assay: cell counting and measure of filaments. It counts as cell-based, mouse. Conditions: 5 μM, 48 h. The source says: OPC proliferation and migration to the CNS injury site as well as their differentiation are critical steps toward remyelination in MS. HDAC activity plays a crucial role in OPC proliferation/differentiation; therefore, HDAC modulation is widely considered a promising therapeutic target for MS.[30] […] Therefore, we tested the effect of our compounds on OPC proliferation and differentiation, through cell counting, measure of filaments, and analysis of proliferation/differentiation markers (Figure 7).
Oli-Neu cells were grown in SATO medium (DMEM medium, 2 mM glutamine, 10 μg/ml insulin, 5.5 μg/ml transferrin, 38.72 nM sodium selenite, 100 µM putrescine, 520 nM L-thyroxine (T4), 500 nM triiodo-L-thyronine (T3), 200 nM progesterone, 25 μg/ml of gentamycin) supplemented with 1% heat-inactivated horse serum (HS) in a humidified, 5% CO2 incubator at 37°C. Cell culture medium and all chemicals were from Sigma-Aldrich, except for insulin-transferrin-sodium selenite 100X supplement (Life Technologies Corporation). Cells were plated on 96 well plates, previously coated with 10 μg/mL poly-L-lysine (Sigma-Aldrich; 10 μg/ml) at the density of 2.5 x 10 4/0.2 mL medium/well and treated with increasing concentrations of the compounds (0.5, 1, 5 and 10 μM). […]
Oli-Neu cells proliferation and differentiation assay
48 hours, for cell counting and measure of filaments, 5 random images for each condition were acquired with an Eclipse TS100 (Nikon) microscope using a 10X objective. Cells number and filament length were measured with Fiji ImageJ2 software. […]

Series [6] deals with primary rat cerebellar granule neurons (CGNs). The settings on record: for cell survival/death in CGNs, % mean ± SE of controls (MTT): 24 h treatment; for neurotoxicity profile in CGNs (in words): 5-50 μM, 24 h.

SMILES strings stand for the structures. “And” between values parts separate entries of the source, which are not always exact repeats. Equal values may be shown once. Read-outs that look alike come from different tables or passages of the source.

As to `CC/C=C\C/C=C\C/C=C\CCCCCCCC(=O)NCCNC(=O)C(CCC)CCC` [compound 1], the “expression of TREM2 (M2 marker)” value in series [1] is listed as “unchanged expression”. Moreover, in series [2], the “microglia production of M1 proinflammatory marker iNOS” value is “significantly decrease”. Moreover, the “levels of nitrites in incubation medium” value in series [3] is on record as “reduced their concentration more effectively than VPA”. Further, the “cell survival/death in HepG2 cells, % mean ± SE of controls (MTT)” value in series [4] (5 μM) is 87 ± 13%; in series [4] (10 μM) it was 93 ± 5%; in series [4] (25 μM) it was 81 ± 10% and > 80%; in series [4] (50 μM), 64 ± 8%. Further, the “hepatotoxicity in HepG2 (in words)” value in series [4] is on record as “low hepatotoxicity”. Moreover, the Oli-Neu cell number result in series [5] is “decrease cell number”. Further, the Oli-Neu filament length result in series [5] is listed as “parallel increase in filament length”. Also, the “cell survival/death in CGNs, % mean ± SE of controls (MTT)” value amounted to 98 ± 18% in series [6] (5 μM), 107 ± 3% in series [6] (10 μM), 89 ± 14% in series [6] (25 μM) and 99 ± 15% in series [6] (50 μM). The “neurotoxicity profile in CGNs (in words)” value in series [6] was “low neurotoxicity profile”.
`CC/C=C\C/C=C\C/C=C\CCCCCCCC(=O)NCCOC(=O)C(CCC)CCC` [compound 2]: in series [1], the “expression of TREM2 (M2 marker)” value is reported as “unchanged expression”. The “microglia production of M1 proinflammatory marker iNOS” value in series [2] is given as “significantly decrease”. The “levels of nitrites in incubation medium” value in series [3] is given as “reduced their concentration more effectively than VPA”. Also, the “cell survival/death in HepG2 cells, % mean ± SE of controls (MTT)” value in series [4] (5 μM) is 102 ± 10%; in series [4] (10 μM), 104 ± 4%; in series [4] (25 μM), 84 ± 6% and > 80%; in series [4] (50 μM), 80 ± 9%. Further, the “hepatotoxicity in HepG2 (in words)” value in series [4] is recorded as “low hepatotoxicity”. In addition, in series [5], the Oli-Neu cell number result is “decrease cell number”. The Oli-Neu filament length result in series [5] is listed as “parallel increase in filament length”. Also, the “cell survival/death in CGNs, % mean ± SE of controls (MTT)” value in series [6] (5 μM) stood at 97 ± 16%; in series [6] (10 μM) it was 110 ± 3%; in series [6] (25 μM) it was 96 ± 15%; in series [6] (50 μM), 85 ± 14%. Moreover, the “neurotoxicity profile in CGNs (in words)” value in series [6] is recorded as “low neurotoxicity profile”.

Source of the values: PMC7734798 (ACS Medicinal Chemistry Letters, 2020).
